Reference: patent US12398097B2, “WDR5-MYC inhibitors” (Vanderbilt University, priority 2019, dated 2025)

Molecular target: WDR5 (Homo sapiens, UniProt P61964)
Test: Competition-based fluorescence polarization anisotropy assay
Conditions: binding to WDR5; displacement of FITC-labeled small molecule probe (analogous to Example J2 or HCH-25) or peptide probe FITC-AHx-SEEEIDVVSV; pH 6.0; Ki converted from IC50
In short: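 Ki values derive from displacement of either a fluorescent small-molecule probe or a FITC-peptide probe from WDR5, monitored by fluorescence polarization. Assay run at pH 6.0 in 200 mM phosphate with 300 mM NaCl, 0.5 mM TCEP and 0.1% Chaps.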

| Molecule | Ki |
| --- | --- |
| O=C(NCc1ccco1)c1cc(Cl)cc(NS(=O)(=O)c2cc(Br)ccc2O)c1O [Example J34, 3-((5-Bromo-2-hydroxyphenyl)sulfonamido)-5-chloro-N-(furan-2-ylmethyl)-2-hydroxybenzamide] | 320 nM |
| CNC(=O)c1cc(Cl)cc(NS(=O)(=O)c2cc(Br)cc(Cl)c2O)c1O [Example J40, 3-((5-Bromo-3-chloro-2-hydroxyphenyl)sulfonamido)-5-chloro-2-hydroxy-N-methylbenzamide] | 240 nM |
| COc1ccc(Br)cc1S(=O)(=O)Nc1cc(Cl)cc(C(N)=O)c1O [Example J43, 3-((5-Bromo-2-methoxyphenyl)sulfonamido)-5-chloro-2-hydroxybenzamide] | 1150 nM |
| O=C(NCC1CCCO1)c1cc(OC(F)(F)F)cc(NS(=O)(=O)c2cc(Cl)ccc2O)c1O (stereo not shown) [Example J178, 3-((5-Chloro-2-hydroxyphenyl)sulfonamido)-2-hydroxy-N-((tetrahydrofuran-2-yl)methyl)-5-(trifluoromethoxy)benzamide] | 700 nM |
| O=C(O)c1cc(Cl)cc(NS(=O)(=O)c2cc(Br)ccc2O)c1 [Example J66, 3-((5-Bromo-2-hydroxyphenyl)sulfonamido)-5-chlorobenzoic acid] | 3510 nM |
| O=C(N[C@H]1CCOC1)c1cc(OC(F)(F)F)cc(NS(=O)(=O)c2cc(Br)ccc2O)c1O [Example J168, (S)-3-((5-Bromo-2-hydroxyphenyl)sulfonamido)-2-hydroxy-N-(tetrahydrofuran-3-yl)-5-(trifluoromethoxy)benzamide] | 460 nM |
| COCCNC(=O)c1cc(C2CC2)cc(NS(=O)(=O)c2cc(Br)cc(F)c2O)c1O [Example J99, 3-((5-Bromo-3-fluoro-2-hydroxyphenyl)sulfonamido)-5-cyclopropyl-2-hydroxy-N-(2-methoxyethyl)benzamide] | 3720 nM |
| O=C(NC1COC1)c1cc(C2CC2)cc(NS(=O)(=O)c2cc(Br)ccc2O)c1O [Example J93, 3-((5-Bromo-2-hydroxyphenyl)sulfonamido)-5-cyclopropyl-2-hydroxy-N-(oxetan-3-yl)benzamide] | 540 nM |
| COCCNC(=O)c1cc(NS(=O)(=O)c2cc(Br)cc(Cl)c2O)cc(C2CC2)c1F [Example J152, 5-((5-Bromo-3-chloro-2-hydroxyphenyl)sulfonamido)-3-cyclopropyl-2-fluoro-N-(2-methoxyethyl)benzamide] | 320 nM |
| Methyl 4-chloro-2-(N-(5-chloro-2-hydroxy-3-nitrophenyl)sulfamoyl)benzoate [NE4] | 1810 nM |
| COc1ccc(Br)cc1S(=O)(=O)Nc1cc(Cl)cc(C(=O)N2CC(S(C)(=O)=O)C2)c1O [Example J64, 5-Bromo-N-(5-chloro-2-hydroxy-3-(3-(methylsulfonyl)azetidine-1-carbonyl)phenyl)-2-methoxybenzenesulfonamide] | 4150 nM |
| COc1ccc(Br)cc1S(=O)(=O)Nc1cc(N2CCOCC2)cc(C(=O)O)c1O [Example J194, 3-((5-Bromo-2-methoxyphenyl)sulfonamido)-2-hydroxy-5-morpholinobenzoic acid] | 10300 nM |
| NC(=O)c1cc(F)cc(NS(=O)(=O)c2cc(Br)ccc2O)c1O [Example J108, 3-((5-Bromo-2-hydroxyphenyl)sulfonamido)-5-fluoro-2-hydroxybenzamide] | 2240 nM |
| O=C(O)c1cc(Cl)cc(NS(=O)(=O)c2cc(Br)cc(F)c2O)c1O [Example J5, 3-((5-Bromo-3-fluoro-2-hydroxyphenyl)sulfonamido)-5-chloro-2-hydroxybenzoic acid] | 340 nM |
| COC1CCN(C(=O)c2cc(Cl)cc(NS(=O)(=O)c3cc(Br)ccc3O)c2O)C1 (stereo not shown) [Example J24, 5-Bromo-N-(5-chloro-2-hydroxy-3-(3-methoxypyrrolidine-1-carbonyl)phenyl)-2-hydroxybenzenesulfonamide] | 5440 nM |
| N#CC1(c2cc(NS(=O)(=O)c3cc(Br)ccc3O)c(O)c(C(=O)NCCN3CCOCC3)c2)CCC1 [Example J225, 3-((5-Bromo-2-hydroxyphenyl)sulfonamido)-5-(1-cyanocyclobutyl)-2-hydroxy-N-(2-morpholinoethyl)benzamide] | 860 nM |
| O=C(O)c1cc(C2CC2)cc(NS(=O)(=O)c2cc(Br)ccc2NCC2CC2)c1O [Example J79, 3-((5-Bromo-2-((cyclopropylmethyl)amino)phenyl)sulfonamido)-5-cyclopropyl-2-hydroxybenzoic acid] | 5270 nM |
| CNC(=O)c1cc(C2CC2)cc(NS(=O)(=O)c2cc(Br)cc(Cl)c2O)c1F [Example J156, 3-((5-Bromo-3-chloro-2-hydroxyphenyl)sulfonamido)-5-cyclopropyl-2-fluoro-N-methylbenzamide] | 210 nM |
| CC(C)S(=O)(=O)c1cc(Cl)cc(NS(=O)(=O)c2cc(Br)cc(Cl)c2O)c1O [Example S23.1, 5-Bromo-3-chloro-N-(5-chloro-2-hydroxy-3-(isopropylsulfonyl)phenyl)-2-hydroxybenzenesulfonamide] | 130 nM |
| O=C(O)c1cc(-c2ccsc2)cc(NS(=O)(=O)c2cc(Br)ccc2O)c1O [Example J195, 3-((5-Bromo-2-hydroxyphenyl)sulfonamido)-2-hydroxy-5-(thiophen-3-yl)benzoic acid] | 940 nM |

The remaining lines, values ahead:

| Ki | Molecule |
| --- | --- |
| 220 nM | CCc1cc(NS(=O)(=O)c2cc(Br)cc(OC(F)(F)F)c2O)c(O)c(C(=O)O)c1 [HCH-13, 3-((5-Bromo-2-hydroxy-3-(trifluoromethoxy)phenyl)sulfonamido)-5-ethyl-2-hydroxybenzoic acid] |
| 650 nM | COCCNS(=O)(=O)c1cc(Cl)cc(NS(=O)(=O)c2cc(Br)ccc2O)c1O [Example S31, 5-bromo-N-(5-chloro-2-hydroxy-3-(N-(2-methoxyethyl)sulfamoyl)phenyl)-2-hydroxybenzenesulfonamide] |
| 50 nM | CS(=O)(=O)c1cc(C2(C#N)CCC2)cc(NS(=O)(=O)c2cc(Br)cc(Cl)c2O)c1O [Example S60, 5-Bromo-3-chloro-N-(5-(1-cyanocyclobutyl)-2-hydroxy-3-(methylsulfonyl)phenyl)-2-hydroxybenzenesulfonamide] |
| 3050 nM | COCCNS(=O)(=O)c1cc(Cl)cc(NS(=O)(=O)c2cc(Br)cc(Cl)c2O)c1O [Example S30, 5-bromo-3-chloro-N-(5-chloro-2-hydroxy-3-(N-(2-methoxyethyl)sulfamoyl)phenyl)-2-hydroxybenzenesulfonamide] |
| 430 nM | O=C(NCC(O)c1ccsc1)c1cc(OC(F)(F)F)cc(NS(=O)(=O)c2cc(Br)ccc2O)c1O (stereo not shown) [HCH-43, 3-((5-Bromo-2-hydroxyphenyl)sulfonamido)-2-hydroxy-N-(2-hydroxy-2-(thiophen-3-yl)ethyl)-5-(trifluoromethoxy)benzamide] |
| 3810 nM | CC(C)N(CCS(=O)(=O)c1cc(Cl)cc(NS(=O)(=O)c2cc(Br)ccc2O)c1)C(C)C [Example S41, 5-Bromo-N-(3-chloro-5-((2-(diisopropylamino)ethyl)sulfonyl)phenyl)-2-hydroxybenzenesulfonamide] |
| 1110 nM | O=[N+]([O-])c1cc(Cl)cc(NS(=O)(=O)c2cc(Br)cc3c2OCC3)c1O [NE7, 5-Bromo-N-(5-chloro-2-hydroxy-3-nitrophenyl)-2,3-dihydrobenzofuran-7-sulfonamide] |
| 240 nM | O=C(NC1CC(O)C1)c1cc(OC(F)(F)F)cc(NS(=O)(=O)c2cc(Br)cc(Cl)c2O)c1O (stereo not shown) [HCH-61, 3-((5-Bromo-3-chloro-2-hydroxyphenyl)sulfonamido)-2-hydroxy-N-(3-hydroxycyclobutyl)-5-(trifluoromethoxy)benzamide] |
